Converted amounts (≈) assume the structure as drawn.
Tests used:
[1] = Antibacterial activity against Mycobacterium avium subsp. avium ATCC 25291; type: functional
[2] = system: Mycobacterium tuberculosis; experiment: Antibacterial activity against Mycobacterium tuberculosis Kurono; type: functional
Mycolicibacterium vaccae = experiment: Antibacterial activity against Mycobacterium vaccae ATCC 15483; type: functional
Escherichia coli = experiment: Antibacterial activity against Escherichia coli K-12; type: functional
Streptococcus pneumoniae = experiment: Antibacterial activity against Streptococcus pneumoniae PCI 602; type: functional
Bacillus subtilis = experiment: Antibacterial activity against Bacillus subtilis PCI 219; type: functional
[3] = system: Mycolicibacterium smegmatis; experiment: Antibacterial activity against Mycobacterium smegmatis ATCC 607; type: functional
Staphylococcus aureus [4] = experiment: Antibacterial activity against Staphylococcus aureus FDA 209P; type: functional
[5] = system: Mycobacterium tuberculosis; experiment: Antibacterial activity against Mycobacterium tuberculosis JCM 6384; type: functional
Staphylococcus aureus [6] = experiment: Antibacterial activity against methicillin resistant Staphylococcus aureus No. 5; type: functional
[7] = system: Mycobacterium avium subsp. paratuberculosis; experiment: Antibacterial activity against Mycobacterium avium subsp. paratuberculosis ATCC 43015; type: functional
[8] = system: Mycobacterium tuberculosis; experiment: Antibacterial activity against Mycobacterium tuberculosis H37Rv; type: functional
Mycolicibacterium phlei = experiment: Antibacterial activity against Mycobacterium phlei; type: functional
Staphylococcus aureus [9] = experiment: Antibacterial activity against methicillin resistant Staphylococcus aureus MS16526; type: functional
Enterococcus faecalis [10] = experiment: Antibacterial activity against t Enterococcus faecalis VRE after 20 hrs by NCCLS-based two-fold broth dilution method; type: functional; settings: read-out: MIC
Enterococcus faecalis [11] = experiment: Antibacterial activity against Enterococcus faecalis ATCC 29212; type: functional
Enterococcus faecalis [12] = experiment: Antibacterial activity against Enterococcus faecalis SR7914 (VRE); type: functional
Enterococcus faecalis [13] = experiment: Antibacterial activity against t Enterococcus faecalis after 20 hrs by NCCLS-based two-fold broth dilution method; type: functional; settings: read-out: MIC
Staphylococcus aureus [14] = experiment: Antibacterial activity against methicillin susceptible Staphylococcus aureus ATCC 29213; type: functional
Enterococcus faecium [15] = experiment: Antibacterial activity against Enterococcus faecium SR7917 (VRE); type: functional
Staphylococcus aureus [16] = experiment: Antibacterial activity against methicillin resistant Staphylococcus aureus SR3637; type: functional
Enterococcus faecium [17] = experiment: Antibacterial activity against Enterococcus faecium ATCC 19434; type: functional
[18] = molecular target: T1, Phospho-N-acetylmuramoyl-pentapeptide-transferase (Staphylococcus aureus, UniProt P0C1R8); experiment: Inhibition of MraY in Staphylococcus aureus
T1 sequence (P0C1R8 whole entry): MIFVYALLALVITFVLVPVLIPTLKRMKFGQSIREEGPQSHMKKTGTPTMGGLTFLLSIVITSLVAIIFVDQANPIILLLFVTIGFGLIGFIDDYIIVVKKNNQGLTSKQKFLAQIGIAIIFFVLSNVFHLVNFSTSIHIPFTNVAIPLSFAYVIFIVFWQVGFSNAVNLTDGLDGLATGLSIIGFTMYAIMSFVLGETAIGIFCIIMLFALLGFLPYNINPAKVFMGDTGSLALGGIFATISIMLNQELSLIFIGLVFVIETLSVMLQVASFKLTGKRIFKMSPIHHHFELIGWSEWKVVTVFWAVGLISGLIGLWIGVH

SMILES | MIC [1] | MIC [2] | MIC (Mycolicibacterium vaccae) | MIC (Escherichia coli) | MIC (Streptococcus pneumoniae) | MIC (Bacillus subtilis) | MIC [3] | MIC (Staphylococcus aureus [4]) | MIC [5] | MIC (Staphylococcus aureus [6]) | MIC [7] | MIC [8] | MIC (Mycolicibacterium phlei) | MIC (Staphylococcus aureus [9]) | also measured
CN1C(=O)[C@H]([C@H](O[C@@H]2O[C@H](CN)[C@@H](O)[C@H]2O)[C@H]2O[C@@H](n3ccc(=O)[nH]c3=O)[C@H](O)[C@@H]2O)N(C)CC=C1C(=O)Nc1ccc(C2CCCCC2)cc1 | 1.56 µg/mL (≈ 2.18 µM) | 1.56 µg/mL (≈ 2.18 µM) | 25 µg/mL (≈ 35 µM) | 6.25 µg/mL (≈ 8.74 µM) | 12.5 µg/mL (≈ 17.5 µM) | 100 µg/mL (≈ 140 µM) | 1.56 µg/mL (≈ 2.18 µM) | 100 µg/mL (≈ 140 µM) | 0.39 µg/mL (≈ 0.546 µM) | 100 µg/mL (≈ 140 µM) | 0.78 µg/mL (≈ 1.09 µM) | 1.56 µg/mL (≈ 2.18 µM) | 12.5 µg/mL (≈ 17.5 µM) | 0.39 µg/mL (≈ 0.546 µM) | –
CCCCCCCCCCNC(=O)C1=CCN(C)[C@@H]([C@H](O[C@@H]2O[C@H](CN)[C@@H](O)[C@H]2O)[C@H]2O[C@@H](n3ccc(=O)[nH]c3=O)[C@H](O)[C@@H]2O)C(=O)N1C | 0.39 µg/mL (≈ 0.56 µM) | 1.56 µg/mL (≈ 2.24 µM) | 50 µg/mL (≈ 71.8 µM) | > 100 µg/mL | > 100 µg/mL | > 100 µg/mL | 6.25 µg/mL (≈ 8.97 µM) | 0.78 µg/mL (≈ 1.12 µM) | 0.78 µg/mL (≈ 1.12 µM) | > 100 µg/mL | 6.25 µg/mL (≈ 8.97 µM) | 1.56 µg/mL (≈ 2.24 µM) | 25 µg/mL (≈ 35.9 µM) | > 100 µg/mL | –
CCCCCCCCCCCC(=O)N[C@@H]1CCN[C@@H]([C@H](O[C@@H]2O[C@H](CN)[C@@H](O)[C@H]2O)[C@H]2O[C@@H](n3ccc(=O)[nH]c3=O)[C@H](O)[C@@H]2O)C1 | – | – | – | – | – | – | – | – | – | – | – | – | – | – | MIC (Enterococcus faecalis [10]): 4 µg/mL (≈ 6.1 µM); MIC (Enterococcus faecalis [11]): 4 µg/mL (≈ 6.1 µM); MIC (Enterococcus faecalis [12]): 4 µg/mL (≈ 6.1 µM); MIC (Enterococcus faecalis [13]): 4 µg/mL (≈ 6.1 µM)
CCCCCCCCCCCCCCCCC[C@H]1CN(C)[C@@H]([C@H](O[C@@H]2O[C@H](CN)[C@@H](O)[C@H]2O)[C@H]2O[C@@H](n3ccc(=O)[nH]c3=O)[C@H](O)[C@@H]2O)C(=O)N(C)[C@@H]1C(=O)O | – | – | – | – | – | – | – | – | – | – | – | – | – | – | MIC (Staphylococcus aureus [14]): 8 µg/mL (≈ 10 µM); MIC (Enterococcus faecium [15]): 8 µg/mL (≈ 10 µM); MIC (Enterococcus faecalis [11]): 4 µg/mL (≈ 5.01 µM); MIC (Staphylococcus aureus [16]): 8 µg/mL (≈ 10 µM); MIC (Enterococcus faecium [17]): 8 µg/mL (≈ 10 µM); MIC (Enterococcus faecalis [12]): 8 µg/mL (≈ 10 µM); IC50 [18]: 6.9 µM
CCCCCCCCCCCCCCCCCCCNC(=O)C1=CCN(C)[C@@H]([C@H](O[C@@H]2O[C@H](CN)[C@@H](O)[C@H]2O)[C@H]2O[C@@H](n3ccc(=O)[nH]c3=O)[C@H](O)[C@@H]2O)C(=O)N1C | 1.56 µg/mL (≈ 1.9 µM) | 1.56 µg/mL (≈ 1.9 µM) | 3.13 µg/mL (≈ 3.8 µM) | > 100 µg/mL | > 100 µg/mL | 0.78 µg/mL (≈ 0.948 µM) | 12.5 µg/mL (≈ 15.2 µM) | 6.25 µg/mL (≈ 7.59 µM) | 0.78 µg/mL (≈ 0.948 µM) | 6.25 µg/mL (≈ 7.59 µM) | 0.78 µg/mL (≈ 0.948 µM) | 1.56 µg/mL (≈ 1.9 µM) | 25 µg/mL (≈ 30.4 µM) | 6.25 µg/mL (≈ 7.59 µM) | –
CN1C(=O)[C@H]([C@H](O[C@@H]2O[C@H](CN)[C@@H](O)[C@H]2O)[C@H]2O[C@@H](n3ccc(=O)[nH]c3=O)[C@H](O)[C@@H]2O)N(C)CC=C1C(=O)NC1CCCCCCCCCCC1 | 3.13 µg/mL (≈ 4.33 µM) | 1.56 µg/mL (≈ 2.16 µM) | 25 µg/mL (≈ 34.6 µM) | > 100 µg/mL | > 100 µg/mL | 1.56 µg/mL (≈ 2.16 µM) | 3.13 µg/mL (≈ 4.33 µM) | 100 µg/mL (≈ 138 µM) | < 0.05 µg/mL | > 100 µg/mL | 0.05 µg/mL (≈ 0.0692 µM) | 1.56 µg/mL (≈ 2.16 µM) | 6.25 µg/mL (≈ 8.65 µM) | > 100 µg/mL | –
CCCCCCCCCCCCCCCCCCOC(=O)C1=CCN(C)[C@@H]([C@H](O[C@@H]2O[C@H](CN)[C@@H](O)[C@H]2O)[C@H]2O[C@@H](n3ccc(=O)[nH]c3=O)[C@H](O)[C@@H]2O)C(=O)N1C | 12.5 µg/mL (≈ 15.4 µM) | 3.13 µg/mL (≈ 3.86 µM) | > 100 µg/mL | > 100 µg/mL | > 100 µg/mL | 3.13 µg/mL (≈ 3.86 µM) | > 100 µg/mL | 25 µg/mL (≈ 30.9 µM) | 6.25 µg/mL (≈ 7.72 µM) | 50 µg/mL (≈ 61.7 µM) | 3.13 µg/mL (≈ 3.86 µM) | 6.25 µg/mL (≈ 7.72 µM) | > 100 µg/mL | 50 µg/mL (≈ 61.7 µM) | –
CCCCCCCCCCCCCNC(=O)C1=CCN(C)[C@@H]([C@H](O[C@@H]2O[C@H](CN)[C@@H](O)[C@H]2O)[C@H]2O[C@@H](n3ccc(=O)[nH]c3=O)[C@H](O)[C@@H]2O)C(=O)N1C | 3.13 µg/mL (≈ 4.24 µM) | 1.56 µg/mL (≈ 2.11 µM) | 0.78 µg/mL (≈ 1.06 µM) | 100 µg/mL (≈ 135 µM) | 6.25 µg/mL (≈ 8.46 µM) | 0.39 µg/mL (≈ 0.528 µM) | 0.39 µg/mL (≈ 0.528 µM) | 3.13 µg/mL (≈ 4.24 µM) | 0.2 µg/mL (≈ 0.271 µM) | 6.25 µg/mL (≈ 8.46 µM) | 0.1 µg/mL (≈ 0.135 µM) | 1.56 µg/mL (≈ 2.11 µM) | 0.78 µg/mL (≈ 1.06 µM) | 3.13 µg/mL (≈ 4.24 µM) | –
CCCCCCCCCCCCCCCCCCNC(=O)C1=CCN(C)[C@@H]([C@H](O[C@@H]2O[C@H](CN)[C@@H](O)[C@H]2O)[C@H]2O[C@@H](n3ccc(=O)[nH]c3=O)[C@H](O)[C@@H]2O)C(=O)N1C | 0.78 µg/mL (≈ 0.964 µM) | 1.56 µg/mL (≈ 1.93 µM) | 3.13 µg/mL (≈ 3.87 µM) | > 100 µg/mL | > 100 µg/mL | < 0.2 µg/mL | 6.25 µg/mL (≈ 7.73 µM) | 6.25 µg/mL (≈ 7.73 µM) | 0.78 µg/mL (≈ 0.964 µM) | 6.25 µg/mL (≈ 7.73 µM) | 0.39 µg/mL (≈ 0.482 µM) | 1.56 µg/mL (≈ 1.93 µM) | 3.13 µg/mL (≈ 3.87 µM) | 6.25 µg/mL (≈ 7.73 µM) | –
